These results are taken from patent US9650395B2, “Antibacterial compounds and methods for use” (PTC Therapeutics, Inc., priority 2011, dated 2017).

≈ marks a conversion by molar mass, not a printed value. Structures can show the parent of a compound that is named as a salt. Where two headings read alike, the source gives them in different places.

The subject of assay [1] is Acinetobacter baumannii (A. baumannii) BAA747. Briefly: Antibacterial activity, MIC, A. baumannii BAA747. It is filed as cell-based. Particulars: Acinetobacter baumannii; A. baumannii BAA747; read-out: MIC BAA747.
For assay [2], the system named is Moraxella catarrhalis (M. catarrhalis) 25238. The assay is described as follows: Antibacterial activity, MIC, M. catarrhalis 25238. It is filed as cell-based. Particulars: Moraxella catarrhalis, M. catarrhalis 25238; read-out: MIC 25238.
In assay [3] the test system is super sensitive Gram-negative Escherichia coli (E. coli) BAS849. The assay is described as follows: Antibacterial activity, microbroth dilution MIC, E. coli BAS849. As to conditions: Escherichia coli, read-out: MIC, BAS849. It is filed as cell-based. For orientation: Dilution methods test growth across graded concentrations, often in twofold steps.
Assay [4] relates to E. coli ELZ4251 (MDR clinical isolate). Briefly: Antibacterial activity, MIC, MDR E. coli ELZ4251. Format: cell-based, Escherichia coli. As to conditions: Escherichia coli, E. coli ELZ4251, MDR clinical isolate; read-out: MIC ELZ4251.
Assay [5] concerns Pseudomonas aeruginosa (P. aeruginosa) 27853. The assay is described as follows: Antibacterial activity, MIC, P. aeruginosa 27853. Particulars: Pseudomonas aeruginosa, P. aeruginosa 27853; read-out: MIC 27853. Format: cell-based. The text has this:
(§1) The antibacterial activity from a microbroth dilution method may be presented as the minimum inhibitory concentration (MIC in […]). The MIC value is the lowest concentration of a drug which prevents macroscopically visible bacterial growth under test conditions.
Antibacterial activity of test compounds against the Gram-negative bacterium Pseudomonas aeruginosa (P. aeruginosa) 27853 is shown in Table 5.

The subject of assay [6] is quinolone resistant E. coli LZ3111. The assay is described as follows: Antibacterial activity, MIC, quinolone resistant E. coli LZ3111. Format: cell-based, Escherichia coli. Particulars: Escherichia coli, read-out: MIC, LZ3111.
Description: as §1
Mutations in these regions are known to confer a high level resistance to the quinolone class of antibiotics.

Assay [7] deals with control Gram-negative E. coli 25922 strain. Briefly: Antibacterial activity, microbroth dilution MIC, E. coli 25922. Particulars: Escherichia coli; E. coli 25922, microbroth dilution; read-out: MIC, 25922. It is filed as cell-based, Escherichia coli.
In assay [8] the test system is E. coli ELZ4000 (MDR clinical isolate). The assay is described as follows: Antibacterial activity, MIC, MDR E. coli ELZ4000. It is filed as cell-based, Escherichia coli. Particulars: Escherichia coli; E. coli ELZ4000, MDR clinical isolate; read-out: MIC ELZ4000.
The test system of assay [9] is Gram-positive Staphylococcus aureus (S. aureus) 29213. The assay is described as follows: Antibacterial activity, microbroth dilution MIC, S. aureus 29213. Particulars: Staphylococcus aureus; S. aureus 29213, microbroth dilution; read-out: MIC, 29213. Format: cell-based.
Assay [10] deals with Neisseria meningitidis (N. meningitidis) 13090. Briefly: Antibacterial activity, MIC, N. meningitidis 13090. Format: cell-based. Particulars: Neisseria meningitidis; N. meningitidis 13090; read-out: MIC 13090.
The test system of assay [11] is Haemophilus influenzae (H. influenzae) 49247. Briefly: Antibacterial activity, MIC, H. influenzae 49247. Particulars: Haemophilus influenzae; H. influenzae 49247; read-out: MIC 49247. Format: cell-based. The procedure, abridged:
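Antibacterial activity against the Gram-negative organism Haemophilus influenzae strain 49247 was measured by microbroth dilution. The minimum inhibitory concentration (MIC) was taken as the lowest drug concentration that stopped bacterial growth from being visible to the naked eye under the test conditions.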

Where [12] appears, read: E. coli BAS849, microbroth dilution.

Take `CCc1cc(C(=O)O)c(=O)[nH]c1-c1ccccc1` [Cpd 75, 5-ethyl-2-oxo-6-phenyl-1,2-dihydropyridine-3-carboxylic acid]: the MIC in assay [1] lay within 12.5 to 150 µg/mL (≈ 51.4 to 617 µM); in assay [2], 12.5 to 150 µg/mL (≈ 51.4 to 617 µM); in assay [3] (setting [12]) it was 1 to 3.5 µg/mL (≈ 4.11 to 14.4 µM); in assay [4], 12.5 to 150 µg/mL (≈ 51.4 to 617 µM); in [5] it was 12.5 to 150 µg/mL (≈ 51.4 to 617 µM); in assay [6], 12.5 to 150 µg/mL (≈ 51.4 to 617 µM). Besides, the MIC in assay [7], in [8] and in assay [9] was 12.5 to 150 µg/mL (≈ 51.4 to 617 µM) in each case.

With `CCc1cc(C(=O)O)c(=O)[nH]c1-c1ccc(N2CCOCC2)c(F)c1` [Cpd 84, 5-ethyl-6-[3-fluoro-4-(morpholin-4-yl)phenyl]-2-oxo-1,2-dihydropyridine-3-carboxylic acid], the MIC in [10] lay within 1 to 3.5 µg/mL (≈ 2.89 to 10.1 µM); in assay [1] it was 12.5 to 150 µg/mL (≈ 36.1 to 433 µM); in [2], 3.5 to 12.5 µg/mL (≈ 10.1 to 36.1 µM); in assay [3] (setting [12]), 3.5 to 12.5 µg/mL (≈ 10.1 to 36.1 µM); in assay [4], 12.5 to 150 µg/mL (≈ 36.1 to 433 µM); in assay [5], 12.5 to 150 µg/mL (≈ 36.1 to 433 µM). Besides, the MIC is 12.5 to 150 µg/mL (≈ 36.1 to 433 µM) in [6]; under 1 µg/mL in assay [11]; 12.5 to 150 µg/mL (≈ 36.1 to 433 µM) in assay [7]; 12.5 to 150 µg/mL (≈ 36.1 to 433 µM) in assay [8]; 12.5 to 150 µg/mL (≈ 36.1 to 433 µM) in assay [9].

As for `CCc1cc(C(=O)O)c(=O)[nH]c1-c1ccc(N2CC[C@@H](N(C)C)C2)cc1.O=C(O)C(F)(F)F` [Cpd 150, 6-{4-[(3R)-3-(dimethylamino)pyrrolidin-1-yl]phenyl}-5-ethyl-2-oxo-1,2-dihydropyridine-3-carboxylic acid trifluoroacetate], the MIC in assay [10] is under 1 µg/mL; in assay [2], under 1 µg/mL; in assay [3], under 1 µg/mL; in assay [4], 12.5 to 150 µg/mL; in assay [5], 12.5 to 150 µg/mL; in assay [6] it was 12.5 to 150 µg/mL. The MIC in assay [11] was under 1 µg/mL; in assay [7], 1 to 3.5 µg/mL; in assay [8] it was 12.5 to 150 µg/mL; in assay [9], 12.5 to 150 µg/mL.

As for `CCc1cc(C(=O)O)c(=O)[nH]c1-c1ccc(N2CC[C@H](N(C)C)C2)cc1.Cl` [Cpd 151, 6-{4-[(3S)-3-(dimethylamino)pyrrolidin-1-yl]phenyl}-5-ethyl-2-oxo-1,2-dihydropyridine-3-carboxylic acid hydrochloride], the MIC is under 1 µg/mL in [10]; under 1 µg/mL in assay [2]; under 1 µg/mL in [3] (setting [12]); 12.5 to 150 µg/mL in assay [4]; 12.5 to 150 µg/mL in [5]; 12.5 to 150 µg/mL in assay [6]. The MIC in assay [11] is under 1 µg/mL; in assay [7] it was 1 to 3.5 µg/mL; in [8] it was 12.5 to 150 µg/mL; in assay [9] it was 12.5 to 150 µg/mL.

`CCc1cc(C(=O)O)c(=O)[nH]c1-c1ccc(N2CC[C@@H](F)C2)cc1` [Cpd 154, 5-ethyl-6-{4-[(3R)-3-fluoropyrrolidin-1-yl]phenyl}-2-oxo-1,2-dihydropyridine-3-carboxylic acid]: the MIC in assay [10] was under 1 µg/mL; in assay [2], under 1 µg/mL; in assay [3] (setting [12]) it was under 1 µg/mL; in assay [4], 12.5 to 150 µg/mL (≈ 37.8 to 454 µM); in [5] it was 12.5 to 150 µg/mL (≈ 37.8 to 454 µM); in [6], 12.5 to 150 µg/mL (≈ 37.8 to 454 µM). Also, the MIC is under 1 µg/mL in [11], 1 to 3.5 µg/mL (≈ 3.03 to 10.6 µM) in assay [7], 12.5 to 150 µg/mL (≈ 37.8 to 454 µM) in assay [8] and 3.5 to 12.5 µg/mL (≈ 10.6 to 37.8 µM) in assay [9].

Consider `CCc1cc(C(=O)O)c(=O)[nH]c1-c1ccc(Nc2ccccc2)cc1` [Cpd 155, 5-ethyl-2-oxo-6-[4-(phenylamino)phenyl]-1,2-dihydropyridine-3-carboxylic acid], for which the MIC in assay [10] was under 1 µg/mL; in [2], under 1 µg/mL; in assay [3] (setting [12]) it was under 1 µg/mL; in assay [4] it was 12.5 to 150 µg/mL (≈ 37.4 to 449 µM); in assay [5], 12.5 to 150 µg/mL (≈ 37.4 to 449 µM); in [6] it was 12.5 to 150 µg/mL (≈ 37.4 to 449 µM). The MIC in assay [11] was under 1 µg/mL; in assay [7] it was 1 to 3.5 µg/mL (≈ 2.99 to 10.5 µM); in assay [8], 12.5 to 150 µg/mL (≈ 37.4 to 449 µM); in assay [9] it was 3.5 to 12.5 µg/mL (≈ 10.5 to 37.4 µM).

Turning to `CCc1cc(C(=O)O)c(=O)[nH]c1-c1ccc(N2CCC[C@H]2C(=O)O)cc1` [Cpd 157, 6-{4-[(2S)-2-carboxypyrrolidin-1-yl]phenyl}-5-ethyl-2-oxo-1,2-dihydropyridine-3-carboxylic acid], the MIC was under 1 µg/mL in assay [10]; under 1 µg/mL in assay [2]; under 1 µg/mL in assay [3] (setting [12]); 12.5 to 150 µg/mL (≈ 35.1 to 421 µM) in assay [4]; 12.5 to 150 µg/mL (≈ 35.1 to 421 µM) in [5]; 12.5 to 150 µg/mL (≈ 35.1 to 421 µM) in assay [6]. Also, the MIC is under 1 µg/mL in [11], 3.5 to 12.5 µg/mL (≈ 9.82 to 35.1 µM) in assay [7], 12.5 to 150 µg/mL (≈ 35.1 to 421 µM) in assay [8] and 12.5 to 150 µg/mL (≈ 35.1 to 421 µM) in [9].

Regarding `CCc1c(-c2ccc(N3C[C@@H]4[C@H](C3)[C@H]4N(C)C)cc2)[nH]c(=O)c(C(=O)O)c1O` [Cpd 271, 6-{4-[(1R,5S,6s)-6-(dimethylamino)-3-azabicyclo[3.1.0]hex-3-yl]phenyl}-5-ethyl-4-hydroxy-2-oxo-1,2-dihydropyridine-3-carboxylic acid hydrochloride], the MIC in [1] was 12.5 to 150 µg/mL; in assay [3] (setting [12]), under 1 µg/mL; in assay [4], 3.5 to 12.5 µg/mL; in assay [5], 12.5 to 150 µg/mL; in assay [6] it was 3.5 to 12.5 µg/mL; in [7] it was 3.5 to 12.5 µg/mL. For the same compound, the MIC in assay [8] and in assay [9] was 12.5 to 150 µg/mL throughout.

Regarding `CCc1c(-c2ccc(N3CC=CC3)cc2)[nH]c(=O)c(C(=O)O)c1O` [Cpd 302, 6-[4-(2,5-dihydro-1H-pyrrol-1-yl)phenyl]-5-ethyl-4-hydroxy-2-oxo-1,2-dihydropyridine-3-carboxylic acid], the MIC in assay [10] is under 1 µg/mL; in assay [2], under 1 µg/mL; in assay [3] (setting [12]), under 1 µg/mL; in assay [4], 12.5 to 150 µg/mL (≈ 38.3 to 460 µM); in [5], 3.5 to 12.5 µg/mL (≈ 10.7 to 38.3 µM); in assay [6], 12.5 to 150 µg/mL (≈ 38.3 to 460 µM). Besides, the MIC in assay [11] was under 1 µg/mL; in assay [7], 1 to 3.5 µg/mL (≈ 3.06 to 10.7 µM); in [8] it was 12.5 to 150 µg/mL (≈ 38.3 to 460 µM); in assay [9], under 1 µg/mL.

On to `CCc1c(-c2ccc(N3C[C@@H](O)[C@@H](O)C3)cc2)[nH]c(=O)c(C(=O)O)c1O` [Cpd 304, 6-{4-[(3R,4S)-3,4-dihydroxypyrrolidin-1-yl]phenyl}-5-ethyl-4-hydroxy-2-oxo-1,2-dihydropyridine-3-carboxylic acid], for which the MIC in [10] is under 1 µg/mL; in assay [2], under 1 µg/mL; in assay [3] (setting [12]) it was under 1 µg/mL; in assay [4], 12.5 to 150 µg/mL (≈ 34.7 to 416 µM); in assay [5] it was 12.5 to 150 µg/mL (≈ 34.7 to 416 µM); in [6] it was 12.5 to 150 µg/mL (≈ 34.7 to 416 µM). Also, the MIC in [11] was under 1 µg/mL; in [7] it was 3.5 to 12.5 µg/mL (≈ 9.71 to 34.7 µM); in assay [8] it was 12.5 to 150 µg/mL (≈ 34.7 to 416 µM); in assay [9], 3.5 to 12.5 µg/mL (≈ 9.71 to 34.7 µM).

With `CN(C)c1ccc(-c2ccc(C(=O)O)c(=O)[nH]2)cc1` [Cpd 310, 6-[4-(dimethylamino)phenyl]-2-oxo-1,2-dihydropyridine-3-carboxylic acid], the MIC in [1], in assay [2], in [3] (setting [12]), in [4], in [5] and in [6] was 12.5 to 150 µg/mL (≈ 48.4 to 581 µM) throughout. Also, the MIC in assay [7], in assay [8] and in assay [9] was 12.5 to 150 µg/mL (≈ 48.4 to 581 µM) in each case.
